Experiments:
[1] = system: rat models with a hand-foot skin reaction; assay: rat models with a hand-foot skin reaction; format: in vivo, SD rats
Method: After adaptive feeding for one week, SD rats (with a body weight of approximately 200 g) were randomly divided into groups with balanced body weight, with 12 rats in each group. Modeling drugs (including sorafenib, erlotinib, afatinib, and osimertinib) were respectively dissolved in a solution containing 5% of DMSO, 45% of PEG400, and 50% of H2O, and the modeling drugs were diluted to required concentrations and then administered once daily by gavage at doses shown in Table 3. After administration by gavage for 1 hour, 0.05 g of ointments containing different mass proportions of test compounds were evenly applied to left paws of the rats, a blank matrix ointment was applied to right paws of the rats to serve as a self-control, and no ointment was applied to the rats in a blank control group. After drug application, four limbs were continuously immobilized for 2 hours, then wiped with clean water to remove the residual drugs, removed from immobilization, and restored to free movement. The modeling drugs, the blank matrix ointment, and the ointments containing the test compounds were all administered once daily. After continuous administration for 30 days, the rats were euthanized, and paw plantar skin tissues were collected, fixed in 10% neutral formalin, […]. The ointments for the test compounds were prepared by mixing the compounds, white beeswax, white petrolatum, and light liquid paraffin in specific ratios (weight ratios of 3 ointments were respectively 1:18:58:23, 3:18:57:22, and 10:20:40:30). The blank matrix ointment was prepared by mixing white beeswax, white petrolatum, and light liquid paraffin in a specific ratio (weight ratio of 18:60:22).
Tissue staining: After dewaxing and rehydration, the paw plantar skin tissue sections of the above rats were stained in a hematoxylin solution for several minutes, cleaned, and placed in 1% acid alcohol for soaking until the sections faded to light blue-red. After cleaning with running water for 5 minutes, the sections were stained with eosin for 2-3 minutes, cleaned to remove excess dyes, dehydrated, then permeabilized by adding xylene for several minutes, and sealed and fixed with a neutral resin. The stratum corneum was observed under an optical microscope, and the thickness of the epidermal stratum corneum was measured using Dmetrix software.
Immunohistochemical staining: After dewaxing and hydration, the paw plantar skin tissue sections of the above rats were incubated with 3% H2O2 at room temperature for 30 minutes and blocked with 10% goat serum for 30 minutes after antigen retrieval. A KRT1 antibody (Abcam, ab93652) and a Loricrin antibody (Abcam, ab183646) were added dropwise, the sections were incubated overnight at 4°C, and an HRP secondary antibody (ZSGB-BIO, PV-6001) and a DAB kit (ZSG-BIO, ZLI9017) were added for color development. The sections were re-stained with hematoxylin, cleaned, and sealed and fixed with a neutral resin, and the expression amounts of KRT1 and Loricrin were observed under an optical microscope.
An incidence rate calculation method involves a proportion of animals in each group meeting the above criteria for determining successful modeling, that is, incidence rate = (number of successfully modeled rats/total number of rats in the group)*100%. […]

[2] = system: kinase inhibitor-induced mouse model with hand-foot skin reaction; assay: kinase inhibitor-induced mouse model with hand-foot skin reaction; format: in vivo, ICR mice
Text: After adaptive feeding for 7 days, SPF-grade ICR mice (male, 5-6 weeks old, with a body weight of approximately 35 g) were randomly divided into groups, including a blank control group (6 mice), a sorafenib modeling group (6 mice), an osimertinib modeling group (6 mice), a sorafenib + compound of formula (I) group (6 mice), an osimertinib + compound of formula (I) group (6 mice), a sorafenib + nicotinamide group (6 mice), and an osimertinib + nicotinamide group (6 mice). The groups were respectively administered corresponding modeling drugs by oral gavage (sorafenib at 100 mg/kg and osimertinib at 10 mg/kg) once daily; and the blank control group was administered an equivalent volume of normal saline. After administration with the chemotherapeutic drugs for 2 weeks, the ointments containing the compound of formula (I) (at a compound content of 3%) used in Example 10 were respectively applied topically in the groups, or nicotinamide was orally administered (100 mg/kg) once daily continuously for 16 days.
Measurement of the degree of swelling of toes: The degree of swelling of hind limb toes of the mice was measured using a toe swelling tester (KW-7C, Nanjing Calvin Biotechnology Co., Ltd.) before administration with the modeling drugs, after administration with the modeling drugs for 2 weeks, and before sacrifice, respectively. Before measurement, ankle joints of hind feet of the mice were marked at same positions before administration, after administration for 2 weeks, and before sacrifice. During measurement, water was properly located at the same level as the marked positions, and numerical values were recorded after becoming stable.
Pathological staining of skin tissues: Skin tissue samples were selected from hind limb toes of the mice and placed in 4% paraformaldehyde for fixation at room temperature for 4 hours. Then, the tissues were taken out and rinsed with running water for several hours. The samples were subjected to dehydration treatment with 70%, 80%, and 90% ethanol solutions, followed by treatment with a mixed solution of equal amounts of absolute alcohol and xylene for 15 minutes, and then permeabilized twice with a xylene solution for 15 minutes each time until the samples became transparent. The samples were placed in a mixture of half xylene and half paraffin for soaking for 15 minutes, and then, paraffin I and paraffin II were added for wax penetration for one hour, respectively. After embedding with paraffin, the samples were sectioned, baked, dewaxed, and hydrated. Then, the hydrated sections were placed in a hematoxylin solution (ZSGB-BIO, article No. 23041001) for staining for 3 minutes, and a differentiation solution of hydrochloric acid in ethanol was added for differentiation for 15 seconds. After rinsing with water, a Scott bluing solution (Servicebio, article No. 20230801) was added for bluing for 15 seconds. After rinsing with running water, the sections were stained with an eosin solution (Solarbio, article No. 33535) for 3 minutes, rinsed with running water, dehydrated, permeabilized, sealed, and inspected under a microscope.
Immunohistochemical staining: After baking, dewaxing, and hydration, paraffin sections of skin tissues of hind limb toes of the mice were subjected to antigen retrieval using a 0.2 M citric acid buffer solution (containing 1.534 g of citric acid, 3.1 g of sodium citrate, and 100 mL of distilled water, pH 4.7). Endogenous […] was removed using 3% hydrogen peroxide (Shandong Annjet High-Tech Disinfection Technology Co., Ltd., article No. 20290902), and the sections were incubated at room temperature for 10 minutes and then fully rinsed with a PBS buffer solution (containing 8 g of NaCl, 0.2 g of KCl, 1.44 g of Na2HPO4, and 1 M HCl, pH 7.4). The sections were permeabilized with 0.5% Triton-X-100 (AmyJet Scientific, article No. A-CSH436-100 mL), respectively permeabilized with mouse anti-IL-1β and rabbit IL-8 for 10 minutes, and not permeabilized with rabbit anti-IL-6. […]

[3] = modeling drug alone by gavage once daily 30 days (Sorafenib 100, Erlotinib 70, Afatinib 50, Osimertinib 60 mg/kg), no test compound

SMILES: CNC(=O)c1cc(Oc2ccc(NC(=O)Nc3ccc(Cl)c(C(F)(F)F)c3)cc2)ccn1 [Sorafenib, sorafenib]
- successful modeling rates for the hand-foot skin reaction ([1]; SD rats, once daily by gavage: sorafenib 100, erlotinib 70, afatinib 50, osimertinib 60 mg/kg): 75%
- KRT1 and Loricrin in tissues ([1]; immunohistochemical staining, successfully modeled rats, modeling drug alone): significantly increased
- Incidence rate Left paw [1, 3]: 9/12 (75%)
- Incidence rate Right paw [1, 3]: 9/12 (75%)
- stratum corneum thickness of the paw plantar skin ([1]; successfully modeled rats, modeling drug alone, vs normal rats): significantly higher than that of normal rats
- cytokine IL-1β in the skin tissues of the hind limb toes of the mice ([2]; modeling drug oral 14 days, vs normal control group, p<0.05): significantly increased
- swelling of the hind limb toes of the mice ([2]; modeling drug oral, 14 days: sorafenib 100 mg/kg, osimertinib 10 mg/kg): significant swelling of the hind limb toes of the mice was caused
- epidermal layer and the stratum corneum in the skin tissues of the hind limb toes ([2]; modeling drug oral, 14 days: sorafenib, osimertinib, vs normal control group): significantly thickened
- skin of the hind limb toes of the mice (appearance) ([2]; modeling for 14 days: sorafenib 100 mg/kg, osimertinib 10 mg/kg oral gavage once daily, vs normal control group): obvious erythema and rhagades
